Measured values taken from patent US10197581B2, “Vitamin D assays” (Enzo Life Sciences, Inc., priority 2013, dated 2019).
Counter-ions that a name gives are not always drawn. Like-named read-outs stand apart in the source and are kept apart here.

Experiments:
[1] = biological target: T1, vitamin D binding protein (DBP) (Homo sapiens, UniProt P02774); assay: Screening of dissociation buffer components (release reagents) in the 25OHD ELISA; assay type: biochemical; settings: for tolerance in the assay / release of 25OHD from DBP and maintaining 25OHD availability for antibody binding: component of dissociation buffer; for effect towards dissociation of 25OHD from DBP: earlier experiments
T1 sequence (P02774 17-474): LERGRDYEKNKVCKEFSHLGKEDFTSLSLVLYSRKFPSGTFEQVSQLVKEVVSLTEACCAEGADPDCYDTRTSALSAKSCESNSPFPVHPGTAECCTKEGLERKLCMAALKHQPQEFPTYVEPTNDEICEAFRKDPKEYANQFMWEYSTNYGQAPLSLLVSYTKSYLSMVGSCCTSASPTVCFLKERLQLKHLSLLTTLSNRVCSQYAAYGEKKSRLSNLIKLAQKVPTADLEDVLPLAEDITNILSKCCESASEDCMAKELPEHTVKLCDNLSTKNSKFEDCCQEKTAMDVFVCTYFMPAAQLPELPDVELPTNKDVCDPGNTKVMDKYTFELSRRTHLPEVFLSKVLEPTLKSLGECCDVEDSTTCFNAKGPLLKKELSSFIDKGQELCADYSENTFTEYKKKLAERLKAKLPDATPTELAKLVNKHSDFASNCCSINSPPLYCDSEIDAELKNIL
Method: In order to optimize the ELISA 25OHD assay, components of the dissociation buffer, the assay buffer and the wash buffer, and conditions for performing various steps in the protocol were tested in the assay. Various reagents were tested alone or in combination for their effects on dissociation of 25OHD from DBP.
In addition, various types and concentrations of buffer salts (e.g., Tris, MES, citrate) were used in the dissociation buffers, assay buffers and wash buffers. Dissociation and wash buffers having a pH from 4-8 were tested. Dissocation was performed at different temperatures (RT, 37° C., 65° C.) and in different incubation vessels (polypropylene or polystyrene) and the competitive ELISA was performed using various different 25OHD conjugates.

[2] = test system: sheep monoclonal anti-25OHD antibody (Bioventix); assay: Cross-reactivity of vitamin D metabolites in the optimized 25OHD competitive ELISA; assay type: binding; settings: for % cross-reactivity: determined at the OD corresponding to the ED50 of 25OHD3; for ED50: optimized 25OHD ELISA, metabolite serially diluted in Tris buffer
Method: Ten vitamin D metabolites were tested for cross-reactivity in the optimized 25OHD ELISA assay described above. New concentrated stock solutions were prepared from dry chemicals for all metabolites. For cross-reactivity testing, each metabolite was prepared and serially diluted in a Tris buffer. Metabolites and the concentration ranges tested are in Table 3. The metabolite solutions were used as samples and mixed with dissociation buffer and the assay carried out as previously described.

[3] = assay type: physicochemical
[4] = biological target: T1, vitamin D binding protein (DBP); assay: Release of bound 25OHD3 from DBP in serum samples at varied release reagent concentrations (ELISA); assay type: biochemical; parameters: from tissue; host or cells: human serum; settings: for percent inhibition by released 25OHD: vs controls with no 25OHD
Method: Each buffer was diluted to provide dissociation buffers with multiple concentrations of a single release reagent.

[5] = biological target: T1, vitamin D binding protein (DBP); assay: as above; assay type: biochemical; parameters: human serum containing 20 or 40 ng/mL 25OHD3 were treated with the various dissociation buffers; from tissue; host or cells: human serum; settings: major release reagents in combination

Row | Molecule | release of 25OHD from DBP and maintaining 25OHD availability for antibody binding [1] | % cross-reactivity [2] [%] | ED50 [2] [µg/mL] | also measured
1 | Triton X-100 | – | – | – | tolerance in the assay [1]: not tolerated in the assay
2 | O=C(O)CCP(CCC(=O)O)CCC(=O)O [TCEP] | did not aid in dissociating 25OHD from DBP | – | – | –
3 | C=C1/C(=C\C=C2/CCC[C@]3(C)[C@@H]([C@H](C)/C=C/[C@H](C)C(C)(C)O)CC[C@@H]23)C[C@@H](O)C[C@@H]1O [1,25(OH)2VitaminD2] | – | 94.1 | 0.00186 | % cross-reactivity ([2]; listed as 1,25(OH)2D2): 94%
4 | C[C@H](CCC(=O)NCCC[N+](C)(C)CCCS(=O)(=O)[O-])[C@H]1CC[C@H]2[C@@H]3[C@H](O)C[C@@H]4C[C@H](O)CC[C@]4(C)[C@H]3C[C@H](O)[C@]12C [CHAPS] | did not aid in dissociating 25OHD from DBP | – | – | –
5 | C=C1CCC(O)C/C1=C\C=C1\CCCC2(C)C1CCC2C(C)CCC(O)C(C)(C)O (centres unmarked) [24,25(OH)2VitaminD3] | – | 1.25 | 0.14 | detection by the anti-25OHD antibody ([2]; 25OHD assay): neither the parent vitamin compounds nor the 24,25(OH)2VitaminD3 metabolite was detected to any appreciable degree
6 | C=C1CC[C@@H](O)C/C1=C/C=C1\CCC[C@]2(C)[C@@H]([C@H](C)CCCC(C)(C)O)CC[C@@H]12 [3-epi-25(OH)VitaminD3] | – | 50.87 | 0.00344 | % cross-reactivity ([2]; listed as 3-epimer of 25(OH)VitaminD3): 51%
7 | CCCC[n+]1ccc(C)cc1.F[B-](F)(F)F | effective and generally compatible with the assay | – | – | time after manufacture until dissociation buffer became unreliable [3]: ≤ 7 days; pH of the dissociation buffer ([3]; after 1.5 days): 4.7; pH of the dissociation buffer ([3]; after 4 days): 4.07; pH of the dissociation buffer ([3]; after 7 day): 3.46; pH of the dissociation buffer ([3]; after 8 days): 2.79; pH of the dissociation buffer ([3]; after 9 days): 2.43; pH of the dissociation buffer ([3]; freshly made): 5.2
8 | NP-40 | – | – | – | tolerance in the assay [1]: not tolerated in the assay
9 | C=C1/C(=C\C=C2/CCC[C@]3(C)[C@@H]([C@H](C)/C=C/[C@H](C)C(C)C)CC[C@@H]23)C[C@@H](O)C[C@@H]1O [1α(OH)VitaminD2] | – | <0.01 | 1.43 | –
10 | CCCCn1cc[n+](C)c1.F[B-](F)(F)F [1-butyl-3-methylimidazolium tetrafluoroborate] | effective and generally compatible with the assay | – | – | –
11 | CCCC[n+]1ccc(C)cc1.[Cl-] | effective and generally compatible with the assay | – | – | stability of dissociation buffer [3]: stable and could be stored at room temperature for weeks with no change in efficacy in the assay; percent inhibition by released 25OHD ([4]; 20 ng/mL 25OHD3 serum sample, high end of 6-14% reagent range): 25%; percent inhibition by released 25OHD ([4]; 20 ng/mL 25OHD3 serum sample, low end of 6-14% reagent range): 12%; percent inhibition by released 25OHD ([4]; 40 ng/mL 25OHD3 serum sample, high end of 6-14% reagent range): 34%; percent inhibition by released 25OHD ([4]; 40 ng/mL 25OHD3 serum sample, low end of 6-14% reagent range): 16%; best percentage of individual release reagent (greatest gains in 25OHD release) ([4]; single release reagent in dissociation buffer): 14%; optimal concentration for dissociation buffer formulation [5]: about 10%
12 | C=C1CC[C@H](O)C/C1=C/C=C1\CCC[C@]2(C)[C@@H]([C@H](C)/C=C/[C@H](C)C(C)C)CC[C@@H]12 [Vitamin D2] | – | 0.11 | 1.643 | –
13 | CC#N [Acetonitrile, acetonitrile] | ineffective release reagents at concentrations that were tolerable in the assay | – | – | –
14 | C=C1CC[C@H](O)C/C1=C/C=C1\CCC[C@]2(C)[C@@H]([C@H](C)CCCC(C)C)CC[C@@H]12 [Vitamin D3] | – | 0.01 | 23.5 | –
15 | CC(C)O [2-isopropanol] | ineffective release reagents at concentrations that were tolerable in the assay | – | – | –
16 | C=C1/C(=C\C=C2/CCC[C@]3(C)[C@@H]([C@H](C)CCCC(C)(C)O)CC[C@@H]23)C[C@@H](O)C[C@@H]1O [1,25(OH)2VitaminD3] | – | 27.9 | 0.00627 | % cross-reactivity ([2]; listed as 1,25(OH)2D3): 28%

Row | Molecule | release of 25OHD from DBP and maintaining 25OHD availability for antibody binding [1] | % cross-reactivity [2] [%] | ED50 [2] [µg/mL] | also measured
17 | C=C1/C(=C\C=C2/CCC[C@]3(C)[C@@H]([C@H](C)CCCC(C)C)CC[C@@H]23)C[C@@H](O)C[C@@H]1O [1α(OH)VitaminD3] | – | 0.04 | 4.03 | –
18 | 1-butyl-3-methylimidazolium octylsulfate | effective and generally compatible with the assay | – | – | –
19 | N=C(N)N [guanidine HCl] | did not aid in dissociating 25OHD from DBP | – | – | –
20 | O=C([O-])c1ccccc1O.[Na+] [sodium salicylate] | effective and generally compatible with the assay | – | – | preventing 25OHD re-uptake by DBP or binding to other cellular proteins/lipids [1]: appeared to be effective; effect towards dissociation of 25OHD from DBP [1]: did not show a large effect
21 | CO [methanol] | ineffective release reagents at concentrations that were tolerable in the assay | – | – | –
22 | C=C1CC[C@H](O)C/C1=C/C=C1\CCC[C@]2(C)[C@@H]([C@H](C)/C=C/[C@H](C)C(C)(C)O)CC[C@@H]12 [25(OH)VitaminD2] | – | 87.94 | 0.00199 | % cross-reactivity ([2]; listed as 25OHD2): 88%
23 | CCCCCCCCCCCC(=O)OCCOCCOCCOCCOCCOCCOCCOCCOCCOCCOCCOCCOCCOCCOCCOCCOCCOCCOCCOCCOCC(OCCOCCOCCOCCOCCOCCOCCOCCOCCOCCOCCOCCOCCOCCOCCOCCOCCOCCOCCOCCO)C1OCC(OCCOCCOCCOCCOCCOCCOCCOCCOCCOCCOCCOCCOCCOCCOCCOCCOCCOCCOCCOCCO)C1OCCOCCOCCOCCOCCOCCOCCOCCOCCOCCOCCOCCOCCOCCOCCOCCOCCOCCOCCOCCO (centres unmarked) [Tween-20, Polysorbate 20] | did not aid in dissociating 25OHD from DBP | – | – | –
24 | CCCCCCCCCCCCCC[N+](C)(C)CCCS(=O)(=O)[O-] [Zwittergent 3-14] | – | – | – | tolerance in the assay [1]: not tolerated in the assay
25 | CCO [ethanol] | ineffective release reagents at concentrations that were tolerable in the assay | – | – | –
26 | CCCCC/C=C\C/C=C\C/C=C\C/C=C\CCCC(=O)O [Arachidonic acid, arachidonic acid] | did not aid in dissociating 25OHD from DBP | – | – | –
27 | methyl β-cyclodextrin | effective and generally compatible with the assay | – | – | preventing 25OHD re-uptake by DBP or binding to other cellular proteins/lipids [1]: appeared to be effective; effect towards dissociation of 25OHD from DBP [1]: did not show a large effect
28 | O=C(O)CN(CCN(CC(=O)O)CC(=O)O)CC(=O)O [EDTA] | did not aid in dissociating 25OHD from DBP | – | – | –
29 | CCCCCCCCCCCCOS(=O)(=O)[O-].[Na+] [SDS, sodium dodecyl sulfate] | did not aid in dissociating 25OHD from DBP | – | – | –
30 | C=C1CC[C@H](O)C/C1=C/C=C1\CCC[C@]2(C)[C@@H]([C@H](C)CCCC(C)(C)O)CC[C@@H]12 [25(OH)VitaminD3] | – | 100 | 0.00175 | –
31 | O[C@@H](CS)[C@@H](O)CS [DTT] | did not aid in dissociating 25OHD from DBP | – | – | –
32 | casein | – | – | – | effect on absorbance signal and dynamic signal range ([1]; protein at or above 0.5% in the assay): negatively impacted absorbance signal and dynamic signal range
